Measured values reported in US20240139221A1, “TREATMENT OF HPV-INDUCED NEOPLASIA” (priority 2022, published 2024).

Key:
[1] = Bulk stability (accelerated stability, one week; HPLC and XRPD)
Description: Bulk stability: Accelerated stability experiments were conducted at 25° C./92% RH and 40° C./75% RH in an open container, 60° C. in a tight container for one week.
Samples were characterized by XRPD and HPLC and inspected for color change.
Accelerated stability experiments were conducted at 25° C./92% RH in an open container, at 40° C./75% RH in an open container, and at 60° C. in a tight container for one week.

[2] = Solubility in buffers, water and simulated vaginal fluid at 37° C.; details: for pH of solution at 2 hrs: 37° C.; for solubility at 0.5 h / solubility at 2 h: 37 °C, thermodynamic from solid
Description: About 4 mg of Compound I Pattern 1 was added into 2 mL of buffer solution.
(§1) Solubility was tested in five media, pH 3.0 citrate buffer, pH 4.5 acetate buffer, pH 6.8 phosphate buffer, water, simulated vaginal fluid (pH 4.2) at 37° C. for 0.5 h and 2 h.
The salt amount used is equivalent to 10 mg anhydrous free base. […] The obtained clear solutions were analyzed by pH meter for pH, and solubility was determined by observation.
as §1

[3] = Hygroscopicity by DVS at 25° C.; type: physicochemical; details: DVS 25° C.; for D. (%) Cycle 1: Desorption cycle 1; for D. (%) Cycle 2: Desorption cycle 2; for S. (%) Cycle 1: Sorption cycle 1; for S. (%) Cycle 2: Sorption cycle 2
Description: Hygroscopicity was investigated by DVS at 25° C., using the following method: […]

[4] = Tablet stability study (purity by HPLC); type: physicochemical
Description: Tablets were prepared using the excipients and excipient ratios shown in the first column of the following tables. The tablets were then stored under the conditions indicated and periodically sampled and tested for purity by HPLC.

[5] = Approximate solubility in solvents at 25° C. and 50° C., visual observation; type: physicochemical
Description: The maximum volume of each solvent added was 1 mL. Approximate solubility was determined by visual observation.
Maximum volume of each solvent added was 1 mL. Approximate solubility was determined by visual observation.

[6] = 25° C., 92% RH, open container, one week
[7] = 40° C., 75% RH, open container, one week
[8] = 60° C., tight container, one week
[9] = acetate buffer, pH 4.5, aqueous buffer
[10] = citrate buffer, pH 3, aqueous buffer
[11] = phosphate buffer, pH 6.8, aqueous buffer
[12] = simulated vaginal fluid, pH 4.2, fassgf or other biorelevant
[13] = excipients Carbomer (49%) + Hydrated Dextrose (49%)
[14] = excipients Carbomer (49%) + Mannitol (49%)
[15] = excipients PC (49%) + Anhydrous Lactose (49%)
[16] = excipients PC (49%) + MCC (49%)

CCOC(=O)[C@H](C)NP(=O)(COCCn1cnc2c(OC)nc(N)nc21)OCc1ccccc1 (stereo partly drawn) [Compound I, ethyl(((2-(2-amino-6-methoxy-9H-purin-9-yl)ethoxy)methyl)(benzyloxy)-phosphoryl)-L-alaninate]
XRPD after storage ([1]; 25° C., 84% RH, open container, 2 days): No change | HPLC (purity) after storage [1, 6]: 98.5% | XRPD after storage [1, 6]: No change | HPLC (purity) after storage [1, 7]: 95.2% | XRPD after storage [1, 7]: No change | HPLC (purity) after storage [1, 8]: 98.5% | XRPD after storage [1, 8]: No change | HPLC (purity), Initial ([1]; initial, before storage): 98.7% | pH of solution at 2 hrs ([2]; Simulated vaginal fluid (pH adjusted with 0.2N NaOH)): (5.53) | pH of solution at 2 hrs ([2]; Water): (7.55) | solubility at 0.5 h [2, 9]: > 2 mg/mL | solubility at 2 h [2, 9]: > 2 mg/mL | solubility at 0.5 h [2, 10]: > 2 mg/mL | solubility at 2 h [2, 10]: > 2 mg/mL | pH of solution at 2 hrs ([2]; pH 3.0 100 mM citrate buffer): (2.98) | pH of solution at 2 hrs ([2]; pH 4.5 50 mM acetate buffer): (4.50) | pH of solution at 2 hrs ([2]; pH 6.8 50 mM phosphate buffer): (6.81) | solubility at 0.5 h [2, 11]: > 2 mg/mL | solubility at 2 h [2, 11]: > 2 mg/mL | solubility at 0.5 h [2, 12]: > 2 mg/mL | solubility at 2 h [2, 12]: > 2 mg/mL | solubility at 0.5 h ([2]; water): > 2 mg/mL | solubility at 2 h ([2]; water): > 2 mg/mL | D. (%) Cycle 1 ([3]; 0% RH): 0.00% | D. (%) Cycle 1 ([3]; 10% RH): 0.11% | D. (%) Cycle 1 ([3]; 20% RH): 0.23% | D. (%) Cycle 1 ([3]; 30% RH): 0.47% | D. (%) Cycle 1 ([3]; 40% RH): 0.60% | D. (%) Cycle 2 ([3]; 0% RH): 0.19% | D. (%) Cycle 2 ([3]; 10% RH): 0.37% | D. (%) Cycle 2 ([3]; 20% RH): 0.57% | D. (%) Cycle 2 ([3]; 30% RH): 0.83% | D. (%) Cycle 2 ([3]; 40% RH): 1.09% | D. (%) Cycle 2 ([3]; 50% RH): 1.48% | D. (%) Cycle 2 ([3]; 60% RH): 1.96% | D. (%) Cycle 2 ([3]; 70% RH): 2.78% | D. (%) Cycle 2 ([3]; 80% RH): 4.33% | D. (%) Cycle 2 ([3]; 90% RH): 9.10% | D. (%) Cycle 2 ([3]; 95% RH): 14.32% | S. (%) Cycle 1 ([3]; 0% RH): 0.00% | S. (%) Cycle 1 ([3]; 10% RH): 0.08% | S. (%) Cycle 1 ([3]; 20% RH): 0.17% | S. (%) Cycle 1 ([3]; 30% RH): 0.28% | S. (%) Cycle 1 ([3]; 40% RH): 0.41% | S. (%) Cycle 1 ([3]; 50% RH): 0.61% | S. (%) Cycle 1 ([3]; 60% RH): 0.85% | S. (%) Cycle 1 ([3]; 70% RH): 1.14% | S. (%) Cycle 1 ([3]; 80% RH): 1.64% | S. (%) Cycle 1 ([3]; 90% RH): 4.27% | S. (%) Cycle 1 ([3]; 95% RH): 14.32% | S. (%) Cycle 2 ([3]; 0% RH): 0.19% | S. (%) Cycle 2 ([3]; 10% RH): 0.22% | S. (%) Cycle 2 ([3]; 20% RH): 0.30% | S. (%) Cycle 2 ([3]; 30% RH): 0.44% | S. (%) Cycle 2 ([3]; 40% RH): 0.62% | purity by HPLC, 0 months [4, 13]: 99.52 | purity by HPLC, 1 month 25 C./60% RH [4, 13]: 82.44 | purity by HPLC, 1 month 40 C./75% RH [4, 13]: 0.17 | purity by HPLC, 0 months [4, 14]: 98.87 | purity by HPLC, 1 month 25 C./60% RH [4, 14]: 91.54 | purity by HPLC, 1 month 40 C./75% RH [4, 14]: 6.75 | purity by HPLC, 0 months [4, 15]: 99.40 | purity by HPLC, 1 month 25 C./60% RH [4, 15]: 95.98 | purity by HPLC, 1 month 40 C./75% RH [4, 15]: 41.3 | purity by HPLC, 0 months [4, 16]: 98.64 | purity by HPLC, 1 month 25 C./60% RH [4, 16]: 97.16 | purity by HPLC, 1 month 40 C./75% RH [4, 16]: 46.11 | Solubility (mg/mL) 25° C. ([5]; Acetone): >100 mg/mL | Solubility (mg/mL) 50° C. ([5]; Acetone): >500 mg/mL | Solubility (mg/mL) 25° C. ([5]; Acetonitrile): >100 mg/mL | Solubility (mg/mL) 50° C. ([5]; Acetonitrile): >500 mg/mL | Solubility (mg/mL) 25° C. ([5]; Dichloromethane): >100 mg/mL | Solubility (mg/mL) 50° C. ([5]; Dichloromethane): >500 mg/mL | Solubility (mg/mL) 25° C. ([5]; Ethanol): >100 mg/mL | Solubility (mg/mL) 50° C. ([5]; Ethanol): >500 mg/mL | Solubility (mg/mL) 25° C. ([5]; Ethyl acetate (EA)): >100 mg/mL | Solubility (mg/mL) 50° C. ([5]; Ethyl acetate (EA)): >500 mg/mL | Solubility (mg/mL) 25° C. ([5]; Heptanes): <2 mg/mL | Solubility (mg/mL) 50° C. ([5]; Heptanes): <10 mg/mL | Solubility (mg/mL) 25° C. ([5]; Isopropanol (IPA)): >100 mg/mL | Solubility (mg/mL) 50° C. ([5]; Isopropanol (IPA)): >500 mg/mL | Solubility (mg/mL) 25° C. ([5]; Isopropyl acetate): >100 mg/mL | Solubility (mg/mL) 50° C. ([5]; Isopropyl acetate): >500 mg/mL | Solubility (mg/mL) 25° C. ([5]; Methanol): >100 mg/mL | Solubility (mg/mL) 50° C. ([5]; Methanol): >500 mg/mL | Solubility (mg/mL) 25° C. ([5]; Methyl ethyl ketone): >100 mg/mL | Solubility (mg/mL) 50° C. ([5]; Methyl ethyl ketone): >500 mg/mL | Solubility (mg/mL) 25° C. ([5]; Methyl t-butyl ether (MTBE)): <2 mg/mL | Solubility (mg/mL) 50° C. ([5]; Methyl t-butyl ether (MTBE)): <10 mg/mL | Solubility (mg/mL) 25° C. ([5]; Tetrahydrofuran): >100 mg/mL | Solubility (mg/mL) 50° C. ([5]; Tetrahydrofuran): 167 to 250 mg/mL | Solubility (mg/mL) 25° C. ([5]; Water): 20 to 25 mg/mL | Solubility (mg/mL) 50° C. ([5]; Water): 25 to 27 mg/mL
